Results from PMC10819888, “Benzimidazole-Based Derivatives as Apoptotic Antiproliferative Agents: Design, Synthesis, Docking, and Mechanistic Studies” (Molecules, 2024).

How the values were obtained:
Test in all cases: NCI-60 one-dose assay
Type in all cases: cell-based
NCI-H522 = details: Homo sapiens, NCI-H522 (Non-Small Cell Lung Cancer), read-out: Cell Inhibition Percent
Procedure: (§1) The final compounds were submitted to the National Cancer Institute, Bethesda, USA, for screening in vitro for anti-cancer. […] compounds, 4a–j, 5, and 6, were selected according to the Development Therapeutic Program (DTP) protocol. The selected compounds were evaluated for their in vitro cytotoxic activity against a panel of sixty cancer cell lines (NCI-60 cell line panel) derived from six cell lines panel of leukemia, nine cell lines of lung cancer, six cell lines of CNS cancer, seven cell lines of colon cancer, eight cell lines of melanoma, six cell lines of ovarian cancer, eight cell lines of renal cancer, two cell lines of prostate cancer, and eight cell lines of breast cancer, representing the full nine human systems as leukemia, melanoma, and cancers of the lung, colon, brain, breast, ovary, kidney, and prostate.
(§2) The selected compounds 4a–j, 5, and 6 were tested at a single concentration of 10 µM. The screening results for the selected compounds are illustrated in Table 1.
(§3) The NCI anti-cancer screening methodology has been described in detail elsewhere (http://www.dtp.nci.nih.gov, accessed on 20 February 2021). Following the Drug Evaluation Branch protocol, National Cancer Institute, Bethesda, USA, a primary anti-cancer assay was performed on approximately 60 human tumor cell line panels derived from nine neoplastic diseases.

NCI-H460 = details: Homo sapiens, NCI-H460 (Non-Small Cell Lung Cancer), read-out: Cell Inhibition Percent
Procedure: as §1, §2, §3

HS 578T = details: Homo sapiens, HS 578T (Breast Cancer), read-out: Cell Inhibition Percent
Procedure: as §1, §2, §3

UACC-62 = details: Homo sapiens, UACC-62 (Melanoma), read-out: Cell Inhibition Percent
Procedure: as §1, §2, §3

K-562 = details: Homo sapiens, K562, K-562 (Leukemia), read-out: Cell Inhibition Percent
Procedure: as §1, §2, §3

MDA-MB-468 = details: Homo sapiens, MDA-MB-468 (Breast Cancer), read-out: Cell Inhibition Percent
Procedure: as §1, §2, §3

M14 = details: Homo sapiens, M14 (Melanoma), read-out: Cell Inhibition Percent
Procedure: as §1, §2, §3

ACHN = details: Homo sapiens, ACHN (Renal Cancer), read-out: Cell Inhibition Percent
Procedure: as §1, §2, §3

HCT-15 = details: Homo sapiens, HCT-15 (Colon Cancer), read-out: Cell Inhibition Percent
Procedure: as §1, §2, §3

KM12 = details: Homo sapiens, KM12 (Colon Cancer), read-out: Cell Inhibition Percent
Procedure: as §1, §2, §3

SN12C = details: Homo sapiens, SN12C (Renal Cancer), read-out: Cell Inhibition Percent
Procedure: as §1, §2, §3

T-47D = details: Homo sapiens, T47D, T-47D (Breast Cancer), read-out: Cell Inhibition Percent
Procedure: as §1, §2, §3

HOP-62 = details: Homo sapiens, HOP-62 (Non-Small Cell Lung Cancer), read-out: Cell Inhibition Percent
Procedure: as §1, §2, §3

786-0 = details: Homo sapiens, 786-0 (Renal Cancer), read-out: Cell Inhibition Percent
Procedure: as §1, §2, §3

OVCAR-4 = details: Homo sapiens, OVCAR-4 (ovarian cancer), read-out: Cell Inhibition Percent
Procedure: as §1, §2, §3

A498 = details: Homo sapiens, A498 (Renal Cancer), read-out: Cell Inhibition Percent
Procedure: as §1, §2, §3

HOP-92 = details: Homo sapiens, HOP-92 (Non-Small Cell Lung Cancer), read-out: Cell Inhibition Percent
Procedure: as §1, §2, §3

OVCAR-5 = details: Homo sapiens, OVCAR-5 (ovarian cancer), read-out: Cell Inhibition Percent
Procedure: as §1, §2, §3

HCC-2998 = details: Homo sapiens, HCC-2998 (Colon Cancer), read-out: Cell Inhibition Percent
Procedure: as §1, §2, §3

BT-549 = details: Homo sapiens, BT-549 (Breast Cancer), read-out: Cell Inhibition Percent
Procedure: as §1, §2, §3

MDA-MB-435 = details: Homo sapiens, MDA-MB-435 (Melanoma), read-out: Cell Inhibition Percent
Procedure: as §1, §2, §3

HCT-116 = details: Homo sapiens, HCT-116 (Colon Cancer), read-out: Cell Inhibition Percent
Procedure: as §1, §2, §3

CAKI-1 = details: Homo sapiens, CAKI-1 (Renal Cancer), read-out: Cell Inhibition Percent
Procedure: as §1, §2, §3

RPMI-8226 = details: Homo sapiens, RPMI-8226 (Leukemia), read-out: Cell Inhibition Percent
Procedure: as §1, §2, §3

LOX IMVI = details: Homo sapiens, LOX IMVI (Melanoma), read-out: Cell Inhibition Percent
Procedure: as §1, §2, §3

DU-145 = details: Homo sapiens, DU-145 (Prostate Cancer), read-out: Cell Inhibition Percent
Procedure: as §1, §2, §3

UO-31 = details: Homo sapiens, UO-31 (Renal Cancer), read-out: Cell Inhibition Percent
Procedure: as §1, §2, §3

SR = details: Homo sapiens, SR (Leukemia), read-out: Cell Inhibition Percent
Procedure: as §1, §2, §3

NCI-H322M = details: Homo sapiens, NCI-H322M (Non-Small Cell Lung Cancer), read-out: Cell Inhibition Percent
Procedure: as §1, §2, §3

HL-60(TB) = details: Homo sapiens, HL-60(TB) (Leukemia), read-out: Cell Inhibition Percent
Procedure: as §1, §2, §3

SK-OV-3 = details: Homo sapiens, SK-OV-3 (ovarian cancer), read-out: Cell Inhibition Percent
Procedure: as §1, §2, §3

`CN(C)c1ccc(C=NNC(=O)c2ccc3[nH]c(-c4ccc(Cl)cc4)nc3c2)cc1` [Compound 4b, N′-(4-(Dimethylamino)benzylidene)-2-(4-chlorophenyl)-1H-benzimidazole-5-carbohydrazide] gave an inhibition at 10 µM (NCI-H522) of 3.02%, an inhibition at 10 µM (NCI-H460) of 2.77% and an inhibition at 10 µM (HS 578T) of 6.32%. The inhibition at 10 µM (UACC-62) was 1.06%, the inhibition at 10 µM (K-562) was 5.96% and the inhibition at 10 µM (MDA-MB-468) was 0%. It also gave an inhibition at 10 µM (M14) of 3.58%, an inhibition at 10 µM (ACHN) of 1.36% and an inhibition at 10 µM (HCT-15) of 0%. The inhibition at 10 µM (KM12) was 2.41%, the inhibition at 10 µM (SN12C) was 1.47% and the inhibition at 10 µM (T-47D) was 14.1%. It also gave an inhibition at 10 µM (HOP-62) of 2.51%, an inhibition at 10 µM (786-0) of 0% and an inhibition at 10 µM (OVCAR-4) of 0%. For the same molecule, the inhibition at 10 µM (A498) was 12.9%, the inhibition at 10 µM (HOP-92) was 0% and the inhibition at 10 µM (OVCAR-5) was 0%. For the same molecule, the inhibition at 10 µM (HCC-2998) was 6.31%, the inhibition at 10 µM (BT-549) was 0% and the inhibition at 10 µM (MDA-MB-435) was 0%. For the same molecule, the inhibition at 10 µM (HCT-116) was 4.7%, the inhibition at 10 µM (CAKI-1) was 4.4% and the inhibition at 10 µM (RPMI-8226) was 5.27%. It also gave an inhibition at 10 µM (LOX IMVI) of 3.7%, an inhibition at 10 µM (DU-145) of 0% and an inhibition at 10 µM (UO-31) of 13.3%. The inhibition at 10 µM (SR) was 2.54%, the inhibition at 10 µM (NCI-H322M) was 0.24% and the inhibition at 10 µM (HL-60(TB)) was 0%. The inhibition at 10 µM (SK-OV-3) was 0%.
Molecule `O=C(NN=Cc1ccccc1)c1ccc2[nH]c(-c3ccc(Cl)cc3)nc2c1` [Compound 4a, N′-Benzylidene-2-(4-chlorophenyl)-1H-benzimidazole-5-carbohydrazide] has an inhibition at 10 µM (NCI-H522) of 1%, an inhibition at 10 µM (NCI-H460) of 0% and an inhibition at 10 µM (HS 578T) of 7.92%. The inhibition at 10 µM (UACC-62) was 0%, the inhibition at 10 µM (K-562) was 7.37% and the inhibition at 10 µM (MDA-MB-468) was 0%. For the same molecule, the inhibition at 10 µM (M14) was 8.89%, the inhibition at 10 µM (ACHN) was 3.26% and the inhibition at 10 µM (HCT-15) was 4.81%. For the same molecule, the inhibition at 10 µM (KM12) was 3.8%, the inhibition at 10 µM (SN12C) was 3.99% and the inhibition at 10 µM (T-47D) was 18.2%. For the same molecule, the inhibition at 10 µM (HOP-62) was 0%, the inhibition at 10 µM (786-0) was 11.6% and the inhibition at 10 µM (OVCAR-4) was 0%. The inhibition at 10 µM (A498) was 22.1%, the inhibition at 10 µM (HOP-92) was 0% and the inhibition at 10 µM (OVCAR-5) was 0%. It also gave an inhibition at 10 µM (HCC-2998) of 0%, an inhibition at 10 µM (BT-549) of 4.12% and an inhibition at 10 µM (MDA-MB-435) of 0%. The inhibition at 10 µM (HCT-116) was 0%, the inhibition at 10 µM (CAKI-1) was 1.57% and the inhibition at 10 µM (RPMI-8226) was 13.8%. The inhibition at 10 µM (LOX IMVI) was 7.23%, the inhibition at 10 µM (DU-145) was 3.83% and the inhibition at 10 µM (UO-31) was 8.73%. For the same molecule, the inhibition at 10 µM (SR) was 18.1%, the inhibition at 10 µM (NCI-H322M) was 0% and the inhibition at 10 µM (HL-60(TB)) was 0%. The inhibition at 10 µM (SK-OV-3) was 4.7%.
Work on `O=C(NN=Cc1ccc([N+](=O)[O-])cc1)c1ccc2[nH]c(-c3ccc(Cl)cc3)nc2c1` [Compound 4c, N′-(4-Nitrobenzylidene)-2-(4-chlorophenyl)-1H-benzimidazole-5-carbohydrazide] yielded an inhibition at 10 µM (NCI-H522) of 67%, an inhibition at 10 µM (NCI-H460) of 94.6% and an inhibition at 10 µM (HS 578T) of 63.2%. The inhibition at 10 µM (UACC-62) was 56.4%, the inhibition at 10 µM (K-562) was 90.3% and the inhibition at 10 µM (MDA-MB-468) was 139%. The inhibition at 10 µM (M14) was 74.1%, the inhibition at 10 µM (ACHN) was 67.7% and the inhibition at 10 µM (HCT-15) was 70.1%. It also gave an inhibition at 10 µM (KM12) of 87%, an inhibition at 10 µM (SN12C) of 80.3% and an inhibition at 10 µM (T-47D) of 89.5%. It also gave an inhibition at 10 µM (HOP-62) of 55.2%, an inhibition at 10 µM (786-0) of 51% and an inhibition at 10 µM (OVCAR-4) of 77%. It also gave an inhibition at 10 µM (A498) of 100%, an inhibition at 10 µM (HOP-92) of 40.3% and an inhibition at 10 µM (OVCAR-5) of 46.8%. The inhibition at 10 µM (HCC-2998) was 85.1%, the inhibition at 10 µM (BT-549) was 86% and the inhibition at 10 µM (MDA-MB-435) was 52.4%. The inhibition at 10 µM (HCT-116) was 85.4%, the inhibition at 10 µM (CAKI-1) was 57.2% and the inhibition at 10 µM (RPMI-8226) was 89.2%. The inhibition at 10 µM (LOX IMVI) was 101%, the inhibition at 10 µM (DU-145) was 58% and the inhibition at 10 µM (UO-31) was 57.4%. For the same molecule, the inhibition at 10 µM (SR) was 108%, the inhibition at 10 µM (NCI-H322M) was 29.9% and the inhibition at 10 µM (HL-60(TB)) was 93.4%. For the same molecule, the inhibition at 10 µM (SK-OV-3) was 39.5%.
